A word on the melting point: it is the temperature, or range, at which the solid turns liquid. The compound `O=C1CSC=C(c2ccccc2)N1` came in with a melting point of 150 to 155 °C. In the case of `O=[N+]([O-])c1ccc(Sc2ncccn2)cc1`, the melting point lay within 103 to 104 °C. The same measure for `CCSc1nc(C)n(Cc2ccc(-c3ccccc3C(=O)O)cc2)c1CO`: 250 °C; for `CCOC(=O)c1cc(-c2ccccc2)n(-c2cccc(C(C)=O)c2)c1C`: 102 to 104 °C; for `COc1ccc(OC)c(C(=O)c2cccc(OC)c2C(=O)O)c1`: 180 to 182 °C.

On to `CCCc1cc(CC(=O)O)ccc1OCc1ccc2ccccc2n1`, for which the melting point worked out at 135 °C. As for `C[C@]12CC(=O)[C@H]3[C@@H](CCC4=CC(=O)CC[C@@H]43)[C@@H]1CCC2=O`, the melting point fell in the range of 204 to 209 °C. For `O=C(c1ccccc1)c1cnc2c(cnn2Cc2ccco2)c1O`, the melting point was 102 °C. The same measure for `O=C1C=CCC(c2ccccc2)(c2ccccc2)O1`: 170 to 173 °C; for `Nc1ncccc1OCc1c(F)cc(F)cc1F`: 122 to 124 °C; for `c1ccc2c(c1)c1[nH]cnc1c1nnnn21`: greater than 300 °C. On to `COC(=O)Cc1cc([N+](=O)[O-])c(OC)c2c1N(C(C)=O)CC2`, for which the melting point fell in the range of 181 to 182 °C. In the case of `O=C1COc2cc(Sc3ccc(O)c(O)c3)ccc2N1`, the melting point is 236 to 238 °C. In turn, `O=C(c1ccc(O)cc1)c1cccc2[nH]ccc12` yielded a melting point of 177 °C.

Compound `CNC(=O)N(O)C(C)c1ccc(OCc2ccccc2)cc1` (stereo unspecified) displayed a melting point of 125 to 128 °C. The same measure for `NC(=O)Cc1ccc(OCC(O)CN2CCCC(Cn3c(=O)[nH]c4cc(Cl)c(Cl)cc43)C2)cc1` (stereo unspecified): 148 °C; for `COC(=O)NC1Cc2ccc([N+](=O)[O-])cc2C1OC(C)=O` (stereo unspecified): 164 to 167 °C; for `CCCCCCCCCCCCCCCCCCSC(=O)Nc1ccccc1`: 85.5 to 86.5 °C. `CCCOc1ccccc1-c1nc2n(C3CCCC3)[nH]c(C)c-2c(=O)n1` returned a melting point of 130 to 132 °C. With `CCOC(=O)Cn1c(=O)n(Cc2ccc(Br)cc2F)c(=O)c2cc(Cl)c(Cl)cc21` the figure was 220 to 221 °C; with `O=C(O)CCCCC1NC(=O)OC1=O` (stereo unspecified), 102 to 104 °C; with `C#CCOCCn1cnc2c(N)nc3ccccc3c21`, 225 to 227 °C. With `COC(=O)c1ccc2cc(CCc3cc4ccc(C(=O)OC)cc4o3)oc2c1` the figure was 175 to 177 °C; with `CCOC(=O)c1cn(C2CC2)c2nc(Cl)c(F)cc2c1=O`, 176 to 178 °C; with `Nc1ncc(C#Cc2ccc(Cl)cc2)c(N2CCOCC2)n1`, 193 to 194 °C. In turn, `CC(=O)N1CCc2cccc(Cl)c2CC1` gave a melting point of 64 to 66 °C. The compound `OCCNc1cc(Nc2ccc(N3CCOCC3)cc2)ncn1` registered a melting point of 204 to 207 °C. In turn, `N#CC(NC(=O)C(F)(F)C(F)(F)F)c1ccc(Cl)cc1` (stereo unspecified) displayed a melting point of 118 °C. `COc1ccccc1CCl`: the melting point was 69.5 to 70.5 °C. The same measure for `N#Cc1cc2c(c(C(=O)O)c1)OC(c1ccccc1)(c1ccccc1)O2`: 221 °C. For the compound `Nc1c(Cl)cc(C(O)CNCCCCCOCCc2ccc(F)cc2)cc1Cl` (stereo unspecified), the melting point lay within 75 to 76 °C. The same measure for `O=c1c(-c2cccc(C(F)(F)F)c2Cl)nn(CCCCC(F)(F)F)c2cccc(Cl)c12`: 137 to 138 °C; for `O=C(O)Cc1ccc2c(c1)Cc1ccccc1CC2=O`: 178 to 181 °C. With `CCCNC(=O)c1ccc2c(c1)N(C(C)CN1CCCC1)c1ccccc1S2` (racemic) the figure was 75 to 80 °C; with `CC1CC(=O)C(C(=O)c2ccc(C(F)(F)F)cc2[N+](=O)[O-])C(=O)O1` (stereo unspecified), 135 to 136 °C.

With `O=CNCC(O)(Cn1cncn1)c1ccc(Cl)cc1Cl` (stereo unspecified), the melting point is 157 °C. In the case of `CCOc1cc(N)c([N+](=O)[O-])cc1C(=O)O`, the melting point turned out to be 230 °C. With `COc1ccc(-n2cnc3ccc(-c4nnc(CCc5cccc(C#N)c5)o4)cc32)cc1` the figure was 125 to 127 °C. With `COc1ccccc1Nc1cc(C(=O)Nc2ccccc2)ccc1OC` the figure was 155 to 156 °C; with `CNC(=O)ON=C(SCC(N)=O)C(C)(C)[N+](=O)[O-]`, 125 to 127 °C.

`CCc1cc(OCc2ccc(C(=O)NS(=O)(=O)c3ccccc3C)cc2)c(C(=O)OC)c(CC)n1`: the melting point lay within 175 to 176 °C. With `COc1ccc(N2CCCN(c3ccnc4sc(C(N)=O)c(N)c34)CC2)cc1` the figure was 206 to 208 °C; with `COc1cc(OC)nc(C2(OC(C)=O)OC(=O)c3c(Cl)cccc32)n1` (stereo unspecified), 213 to 215 °C; with `CC(=O)C(Cc1nsc2ccc(-n3c(=O)cc(C(F)(F)F)n(C)c3=O)cc12)C(=O)OC(C)(C)C` (stereo unspecified), 76 to 78 °C. In turn, `CCCCn1nc2c(N)nc3ncccc3c2c1CC(C)C` yielded a melting point of 219 to 222 °C. `C=CCOc1cc(CC(C#N)=CNc2ccccc2)cc(OCC=C)c1NC(C)=O` registered a melting point of 176 to 178 °C. For `CCC(C)c1c(O)ccc2c1oc1ccc(C#N)cc12` (stereo unspecified), the melting point lay within 206 to 207 °C. Compound `CNC[C@H]1CC[C@H](c2nc3ccccc3[nH]2)CC1` displayed a melting point of 232 to 235 °C. With `COC1CCN(c2ccn3nc(-c4ccccc4)c(-c4ccc(=O)n(C(C)C)n4)c3c2)CC1` the figure was 177 to 178 °C; with `CC(CNCC(O)c1ccccc1)OCc1ccccc1` (stereo unspecified), 90 to 100 °C. As for `CN[C@@H]1COc2cc(Cl)cc(-c3ccccc3C)c2O1`, the melting point was greater than 245 °C.

`CC1(C)CCc2ccc(Oc3ccc(N)cn3)cc2O1` gave a melting point of 93 to 94 °C. Take `Brc1ccc(N2CCN(Cc3c[nH]c4ncccc34)CC2)cc1`: the melting point lay within 234 to 238 °C. Consider `Cn1cc(C(=O)O)c(Nc2ccc(F)cc2F)cc1=O`, for which the melting point fell in the range of 253 to 255 °C.

In the case of `COc1cc(NCCN(C)Cc2ccccc2)ccc1C(N)=O`, the melting point is 153 to 155 °C. Consider `N#Cc1cccc(Oc2ncccc2C(=O)NCc2ccc(S(N)(=O)=O)cc2)c1`, for which the melting point lay in the range of 179 to 180 °C. With `O=C1NCc2ccsc21` the figure was 104 to 105 °C.

Turning to `OCc1ncc2n1-c1ccc(Cl)cc1C(c1ccccc1F)=NC2`, the melting point is 258 to 260 °C. The same measure for `C1=c2ccccc2=c2c1c1cnccc1c1c2=Cc2ccccc2-1`: 225 to 227 °C; for `CC(=O)N1CCC(=O)C(C2c3ccccc3CCc3ccccc32)C1` (stereo unspecified): 107 to 109 °C. The same measure for `CC(C)(C)C(C)(O)C(CCOc1ccccc1)n1cncn1` (stereo unspecified): 118 to 120 °C; for `C=CCON(C1=NCCN1)c1c(F)cccc1Br`: 141 °C; for `COP(=O)(OC)[C@H](C)NC(=O)[C@H](C)N`: 103 to 106 °C. With `CCCc1nc2c(N)nc3ccccc3c2n1CC(C)(C)C(N)=O` the figure was 219 to 221 °C; with `NC1CCCC(C(=O)N2CCC(c3[nH]nc4c3C(=O)c3c(NC(=O)NN5CCOCC5)cccc3-4)CC2)C1` (stereo unspecified), 201 to 203 °C. Turning to `Cc1ccc(-n2cccc2C=O)c(Cl)c1`, the melting point is 111 to 112 °C.

(Values after a melting point compilation (Tetko et al.; mined from patent text by program, amines drawn as free bases though some values may be those of a salt).)
